The values that follow come from patent US6387388B1, “Pesticidal formulation” (Merck & Co., Inc., priority 1995, dated 2002).

“Also recorded” adds a separate entry of the source.

Series [1] deals with tomato fruitworm (Helicoverpa zea). Nature of the series: Field efficacy study, weekly foliar sprays on tomato. In kind it is in vivo. From the text: ‘Roma’ tomato transplants were planted in the field on June 10. Each plot was one row (5 ft centers) by 20 feet (=0.0022957 acre). Plots were separated within rows by at least 6 feet of unplanted ground and across rows by 24 feet. A single row of sweet corn (‘Silver Queen’) was planted mid-way between rows. Weeds are allowed to grow in the ground between the tomato and sweet corn rows, but were kept mowed. Weeds were controlled within tomato rows by a single application of Sencor 75 DF applied as a directed spray at the rate of 0.5 lb a.i./acre on June 20. Foliar applications of Dithane M45 at 1.5 lb a.i./acre were made every 5 days beginning July 1 and continuing through harvest for control of foliar diseases. In addition, calcium nitrate at 4 lb/acre was applied on July 10, 17, 24 and 31 for control of blossom-end rot. All insecticide treatments were applied as foliar sprays on July 23, 30, August 6, and 13. Applications were made using a CO2-powered, backpack sprayer calibrated to deliver 55 gallons of spray per acre at 42 psi. […]
The experimental treatments were replicated 4 times in a randomized complete block experimental design. The incidence of fruitworm damage to the fruit was determined in each plot on August 11, when the first fruit reached market maturity, and again on August 16. […]

The conditions of series [2]: soluble in 1 liter of water; cited from earlier work.
The next series deals with eye of a rabbit. Kind of series: Neat emamectin benzoate, acute ocular irritation study in rabbits. Format: in vivo, albino rabbits (New Zealand white). The procedure: Three male and three female albino rabbits (New Zealand white) 25 to 26 weeks of age and weighing 3.23 to 3.66 kg was used in this study. The test compound was ground into a fine powder and a volume of 0.1 cc (approximately 28 mg) was placed in the conjunctival sac of the left eye of each rabbit. Immediately after administration, the eyelids of the treated eye were held together for one second to prevent loss of material and released. The right eye was used as an untreated control.
Ocular examinations were made recorded at 1, 24, 48 and 72 hours post-instillation in all rabbits and were scored by the Draize Method (J. Pharmacol. Exp. Therap. 82:377-390 (1944)). Because of severe ocular reactions, three rabbits were euthanized following the 72-hour reading. Scores were recorded for the three remaining rabbits once daily through 14 days post-instillation except on weekends.

Turning to `CC(C)[C@H](C(=O)O[C@H](C#N)c1cccc(Oc2ccccc2)c1)c1ccc(Cl)cc1` [esfenvalerate], the “overall mean percentage of damaged fruit” value in series [1] (tomato, Asana XL 0.66 EC at 0.036 lb active ingredient per acre, applied weekly, untreated control 18.5%) turned out to be 0.0%.

Regarding `CC1(C)[C@H](C(=O)O[C@H](C#N)c2cccc(Oc3ccccc3)c2)[C@@H]1/C=C(\Cl)C(F)(F)F` (racemic) [lambda-cyhalothrin], the “overall mean percentage of damaged fruit” value in series [1] (foliar) is reported as 1.0%.

As for `COP(=O)(NC(C)=O)SC` (stereo not drawn) [acephate], the “amount soluble in water” value in series [2] is on record as 650 g.

For the compound “benzoate salt of 4″-deoxy-4″-epi-methylamino avermectin B1a/B1b [emamectin benzoate]”, the ocular irritation rating entry in the series with eye of a rabbit (0.1 cc (approximately 28 mg) fine powder in conjunctival sac, six rabbits, listed as neat emamectin benzoate) is reported as “severely irritating; also recorded: severe, irreversible eye irritant”. The “ocular reactions in the three rabbits euthanized early, through 72 hours” value in the series on eye of a rabbit (approximately 28 mg in conjunctival sac) is on record as “chemosis became severe”. Moreover, the “ocular reactions at one hour” value in the series with eye of a rabbit (approximately 28 mg in conjunctival sac, six rabbits, listed as neat emamectin benzoate) is “the eyes of four rabbits had congestion of the iris; also recorded: corneal anesthesia and conjunctival irritation; also recorded: moderate redness, slight or moderate chemosis and severe colorless discharge”. Also, the “ocular reactions at 24 hours” value with eye of a rabbit (approximately 28 mg in conjunctival sac, listed as neat emamectin benzoate) is on record as “an additional rabbit had congestion of the iris; also recorded: very slight corneal opacity covering less than ¼ of the corneal surface; also recorded: corneal anesthesia was still present, redness was severe, chemosis was never more than moderate”. Besides, the body weight loss entry with eye of a rabbit (rabbits euthanized early) is given as “less than 7%”. For the same compound, the “corneal anesthesia lasted through” value in the series with eye of a rabbit (two of the three remaining rabbits) was found to be 72 h.
